Experimental data: publication PMC6132687, “Stem cells are the most sensitive screening tool to identify toxicity of GATA4-targeted novel small-molecule compounds” (Archives of Toxicology, 2018)

Key:
[1] = tested on: GATA4–NKX2-5 transcriptional synergy; assay: Luciferase reporter assay of GATA4–NKX2-5 synergistic gene activation in COS-1 cells; format: cell-based, African green monkey; conditions: 24 h treatment, normalized to DMSO
Procedure: COS-1 cells were used to investigate the compound effects on GATA4–NKX2-5 synergistic gene activation using a luciferase reporter assay (Kinnunen et al. [2015]). Toxicity profiling was carried out in eight cell types: the H9c2 myoblast cell line, NRVCs, CFs, mESCs, MEFs, mESC derivatives from day 5 embryoid bodies (D5EBs), hiPSCs and hiPSC-CMs. All cell cultures were maintained at 37 °C in a humidified atmosphere of 5% carbon dioxide (CO2) and the regular growth medium was used for compound exposures. Cell culture methods and cardiomyocyte differentiation from human pluripotent stem cells are described in Supplementary Information.
The empty expression plasmid MT2 (pMT2) and mouse Gata4 expressing pMT2-Gata4 plasmids were gifts from D. B. Wilson (Department of Pediatrics, St. Louis Children’s Hospital) (Arceci et al. [1993]). The luciferase reporter plasmid pGL3-3xHA containing three Nkx2-5 high-affinity binding sites has been described previously (Kinnunen et al. [2015]). To create mouse Nkx2-5 expressing pMT2-Nkx2-5, the cDNA was cloned from pFLCI-Nkx2-5 (clone D330001C20, Imagenes), which was a kind gift from R. Kerkelä (University of Oulu, Finland), with primers containing the EcoRI restriction site (forward: 5′-[…]-3′ and reverse 5′-[…]-3′) and ligated to pMT2 EcoRI site. The correct clone was identified by digestion with specific restriction enzymes and the sequence was verified by DNA sequencing (DNA Sequencing and Genomics Laboratory, Institute of Biotechnology, University of Helsinki, Finland).
COS-1 cells grown on 96-well plates were transfected with the luciferase reporter plasmid pGL3-3xHA (100 ng/well) and equal amounts of expression vectors pMT2-Gata4 and pMT2-Nkx2-5 (total of 50 ng/well) using Fugene 6 (Promega) at a reagent:DNA ratio of 3:1. Cells transfected with either pMT2, pMT2-Gata4 or pMT2-Nkx2-5 were used to confirm synergistic transactivation of the reporter gene in all experiments. After 6 h of transfection, the cells were treated with compounds or vehicle (0.1% dimethyl sulfoxide, DMSO) and the luminescence was measured 24 h later using Neolite Reporter Gene Assay System (PerkinElmer, Turku, Finland) according to manufacturer’s instructions and Victor2 plate reader (PerkinElmer, Turku, Finland). Each compound was tested in three technical replicates in at least two independent experiments.
A luciferase reporter assay with an artificial promoter containing three high-affinity binding sites for NKX2-5 was used to evaluate the effects of the compounds on GATA4–NKX2-5 transcriptional synergy (Kinnunen et al. [2015]). We have previously shown that while GATA4 alone induces only minimal activation of this promoter, it strongly potentiates NKX2-5-mediated transactivation (Kinnunen et al. [2015]; Välimäki et al. [2017]).

[2] = tested on: stem cell and progenitor cell viability; assay: Toxicity classification from MTT screening across cell types; conditions: based on effects on stem cell and progenitor cell viability
Procedure: The cells were exposed to the test compounds for 24 h and cytotoxicity was quantified with MTT and LDH assays as described previously (Talman et al. [2011]). For the determination of cell membrane integrity, 50 µl of medium from each well was transferred onto a new 96-well plate followed by addition of 50 µl of substrate solution containing 1.3 mM β-nicotinamide adenine dinucleotide, 660 µM iodonitrotetrazolium, 54 mM L(+)-lactic acid, 280 µM phenazine methosulphate and 0.2 M Tris–HCl (pH 8.0). After a 30-min incubation, the reaction was stopped by adding 50 µl of 1 M acetic acid to each well and absorbance was measured at 490 nm using Victor2 plate reader (PerkinElmer, Turku, Finland). Spontaneous LDH release was measured from untreated cells, maximal LDH release from cells lysed with 0.9% Triton X-100 and background absorbance was measured from wells without cells. After background extraction, cytotoxicity was calculated as follows: cytotoxicity (%) = [(sample − spontaneous LDH release)/(maximal LDH release − spontaneous LDH release)] × 100. For quantification of metabolic activity, 3-(4,5-dimethylthiazol-2-yl)-2,5-diphenyltetrazolium bromide (MTT) was added to the cells at a final concentration of 0.5 mg/ml followed by 2 h incubation in cell culture conditions. The medium was then aspirated and formazan crystals were solubilized in DMSO. Absorbance was measured at 550 nm and absorbance at 650 nm was subtracted as background.
When comparing the effects of different compounds within each individual cell type, the compounds can be grouped into two main classes: toxic (3i-1000, 3i-1120, 3i-1148 and 3i-1229) and non-toxic (3i-1047, 3i-1051, 3i-1165, and 3i-1228) compounds. Based on the hiPSC toxicity data, 3i-1148 can be considered as the most toxic compound with an IC50 of 0.30 µM (Fig. 5b).

SMILES: CCN(CC)c1ccc(NC(=O)c2ccsc2)cc1 [3i-1051]
- effect on GATA4- and NKX2-5-induced gene activation (luciferase reporter activity) [1]: ineffective
- toxicity class (toxic / non-toxic) [2]: non-toxic

SMILES: CCN(CC)c1ccc(NC(=O)c2c(-n3cccc3)sc(C)c2C)cc1 [3i-1165]
- effect on GATA4- and NKX2-5-induced gene activation (luciferase reporter activity) [1]: only a weak effect
- toxicity class (toxic / non-toxic) [2]: non-toxic

SMILES: CCN(CC)c1ccc(NC(=O)c2c(-c3coc(C)n3)noc2C)cc1 [3i-1228]
- effect on GATA4- and NKX2-5-induced gene activation (luciferase reporter activity) [1]: ineffective
- toxicity class (toxic / non-toxic) [2]: non-toxic
